Entries after “also recorded” stand apart in the source; their conditions may differ.
Assays:
[1] = target: T1, LBS (Rattus norvegicus, UniProt Q02563); assay: Competition binding curves against [^3H]-compound 7, rat brain membranes
T1 construct: from tissue; host or cells: rat brain (crude membranes)
Experimental: FIGS. 2a and 2b depict competition binding curves showing that compound 7 binds to LBS with about 30 fold higher affinity than levetiracetam. […] (M). Test drugs are levetiracetam (2a) and compound 7 (2b).
Binding experiments were conducted on crude rat brain membranes at 4° C. as described in Noyer M. et al. (Euro. J. Pharmacol. (1995), 286, 137-146). Incubation time for equilibrium studies was 120 min. […] The Bmax being similar to the value estimated using [^3H]-L059 as radioligand in similar membrane preparations (5 pmol/mg protein).

[2] = target: T2, hSV2C (Homo sapiens, UniProt Q496J9); assay: IC50 of unlabelled ligands against SV2C, [^3H]-compound 7 as probe; type: binding; conditions: [^3H]-compound 7 as labeled probe, FIG. 6
T2 construct: expressed in transfected cells; host or cells: COS-7 (transient transfection)
T2 sequence (Q496J9 1-727): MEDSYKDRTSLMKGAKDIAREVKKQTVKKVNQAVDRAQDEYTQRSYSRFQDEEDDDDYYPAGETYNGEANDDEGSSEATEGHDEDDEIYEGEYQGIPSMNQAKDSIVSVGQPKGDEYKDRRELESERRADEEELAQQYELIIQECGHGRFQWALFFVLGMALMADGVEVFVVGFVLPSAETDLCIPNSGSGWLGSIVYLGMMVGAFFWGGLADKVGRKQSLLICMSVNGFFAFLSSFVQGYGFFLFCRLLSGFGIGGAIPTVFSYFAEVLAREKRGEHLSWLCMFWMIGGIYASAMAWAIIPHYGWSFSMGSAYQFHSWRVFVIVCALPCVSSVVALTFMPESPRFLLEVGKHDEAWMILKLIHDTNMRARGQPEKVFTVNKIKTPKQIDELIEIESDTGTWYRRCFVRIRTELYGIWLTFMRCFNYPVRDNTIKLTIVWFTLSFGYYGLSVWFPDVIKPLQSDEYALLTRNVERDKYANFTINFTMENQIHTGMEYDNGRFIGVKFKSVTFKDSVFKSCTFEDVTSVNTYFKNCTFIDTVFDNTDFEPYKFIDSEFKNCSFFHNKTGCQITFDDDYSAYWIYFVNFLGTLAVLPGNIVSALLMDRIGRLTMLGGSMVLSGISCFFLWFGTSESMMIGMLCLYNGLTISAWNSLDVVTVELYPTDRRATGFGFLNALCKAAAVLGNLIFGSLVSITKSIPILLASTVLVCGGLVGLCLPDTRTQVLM
From the text: (M). Depicted are the IC50 curves of compound 7 binding to hSV2A (x) and hSV2C (□), and compound Z binding to hSV2A (▪) and hSV2C (⋄).
(§1) This confirms that labeled-compound Z has poor affinity for utilizing as a probe against SV2C, and that labeled-compound 7 is a preferred probe to utilize in screening against SV2C.

[3] = target: T2, hSV2C; assay: Radioligand binding to COS-7 cells transfected with SV2C; conditions: displaced by excess levetiracetam, FIG. 5
From the text: as §1

[4] = target: human SV2A (Homo sapiens, UniProt Q7L0J3); assay: Radioligand binding to SV2A under standard conditions
human SV2A, sequence (Q7L0J3 whole entry): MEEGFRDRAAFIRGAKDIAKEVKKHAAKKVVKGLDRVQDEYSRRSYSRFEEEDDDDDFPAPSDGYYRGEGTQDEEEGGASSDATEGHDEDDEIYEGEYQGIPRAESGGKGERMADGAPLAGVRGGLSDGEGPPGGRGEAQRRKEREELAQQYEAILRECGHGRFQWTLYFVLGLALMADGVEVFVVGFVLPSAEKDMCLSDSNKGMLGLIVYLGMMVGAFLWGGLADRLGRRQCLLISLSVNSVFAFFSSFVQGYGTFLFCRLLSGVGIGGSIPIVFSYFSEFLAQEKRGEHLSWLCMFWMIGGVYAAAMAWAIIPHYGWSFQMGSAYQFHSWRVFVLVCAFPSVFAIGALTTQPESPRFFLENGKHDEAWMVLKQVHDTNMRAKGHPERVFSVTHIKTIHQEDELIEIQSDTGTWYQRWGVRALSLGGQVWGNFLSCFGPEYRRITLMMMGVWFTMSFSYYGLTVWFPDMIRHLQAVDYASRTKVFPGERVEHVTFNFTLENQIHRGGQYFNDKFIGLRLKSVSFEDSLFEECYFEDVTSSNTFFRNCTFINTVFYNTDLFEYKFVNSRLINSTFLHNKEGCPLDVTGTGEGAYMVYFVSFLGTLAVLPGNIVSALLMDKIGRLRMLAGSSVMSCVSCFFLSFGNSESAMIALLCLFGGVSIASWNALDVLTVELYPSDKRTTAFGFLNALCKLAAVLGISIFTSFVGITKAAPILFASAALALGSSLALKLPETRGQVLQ
From the text: as §1

[5] = target: T3, LBS/SV2A (Rattus norvegicus, UniProt Q02563); assay: Photolabelling of LBS in rat brain membranes, SDS-PAGE; type: binding; conditions: UV irradiated rat brain membranes, gel slicing
T3 construct: from tissue; host or cells: rat brain (crude membranes)
T3 sequence (Q02563 whole entry): as the sequence (Q7L0J3 whole entry) above, with D53E, S62A, T71A, E144D, A154T, G440S, S482A, I572V, M634L counted along it
From the text: Y-axis represents the radioactivity (DPM) in gel slices and X-axis represents the gel slice number. Each number and arrow in the graph represents the position and the size in kilodaltons of molecular weight standards.
This example provides a photoactivable ligand for labelling SV2A/LBS and its detection in biological samples. This ligand was designed to cross-link to the LBS/SV2A with an azidophenyl motif capable of forming a covalent complex with the protein upon UV light irradiation.

[6] = test system: untransfected cells; assay: Radioligand binding to untransfected COS-7 cells; conditions: FIG. 5, bars 2

T1 sequence (Q02563 whole entry): as the sequence (Q7L0J3 whole entry) above, with D53E, S62A, T71A, E144D, A154T, G440S, S482A, I572V, M634L counted along it

[N-]=[N+]=Nc1c(F)ccc(C2CC(=O)N(Cn3ccnc3)C2)c1F (single isomer, unassigned; (+)) [compound 7, (+)-4-(3-azido-2,4-difluorophenyl)-1-(1H-imidazol-1-ylmethyl)pyrrolidin-2-one]
fold higher affinity for LBS than levetiracetam (L059) ([1]; FIG. 2): about 30 fold | Ki ([1]; rat brain membranes): 31.6 nM | affinity to SV2C compared with SV2A (IC50 curves) [2]: equivalent affinities

CC[C@@H](C(N)=O)N1CC(c2cccc(N=[N+]=[N-])c2)CC1=O (stereo partly drawn) [[^3H]-compound Z, reference compound]
binding of radioligand to SV2C expressed in COS-7 cells [3]: absence of specific binding; also recorded: lack of binding | binding of radioligand to SV2A [4]: binds well

CC[C@@H](C(N)=O)N1CC(c2cccc(N=[N+]=[N-])c2)CC1=O (stereo partly drawn) [compound Z, (2S)-2-[4-(3-azidophenyl)-2-oxopyrrolidin-1-yl]butanamide]
affinity to SV2C compared with SV2A (IC50 curves) [2]: different affinities; also recorded: much weaker affinity

[^3H]-(+)-4-(3-azido-2,4-difluorophenyl)-1-(1H-imidazol-1-ylmethyl)pyrrolidin-2-one [[^3H]-compound 7]
size of the protein the radiolabel incorporates into [5]: 90 kDa | binding of radioligand to SV2C expressed in COS-7 cells [3]: specific binding; also recorded: binds well | specific binding of radioligand in untransfected cells [6]: no specific binding

From patent publication US7763644B2, “Imidazole derivatives, processes for preparing them and their uses” (UCB Pharma, S.A., priority 2003, dated 2010)
